The numbers were not newly measured in patent publication US8535722B2, “Functionally graded biocompatible coating and coated implant” (priority 2005, dated 2013), which cites them from elsewhere.

Consider `[Ag]` [Ag/Ag^+, silver], for which the “threshold of cytotoxicity in vivo” value was 10 ppm.
